Results: PubChem BioAssay AID330 (DTP/NCI, 2004)
Several values for one entry are separate records, joined by “and”; a condition that tells them apart may be missing. Equal entries are not always repeated. Toxic doses and inconclusive results are not listed.

Test system: P388 leukemia ip, CD2F1 mice, survival T/C
Experiment: NCI In Vivo Anticancer Drug Screen. Data for tumor model P388 Leukemia (intraperitoneal) in CD2F1 (CDF1) mice
Details: endpoint: median survival time, higher = longer survival
In short: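 Mice carrying the transplanted tumor received test compound or vehicle. Survival was recorded in each group, and the value is the treated-group measurement divided by that of the vehicle-treated control group.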

[1] = dose: 25.0 mg/kg/injection, schedule: Q01DX005 (ip), vehicle: Klucel (hydroxypropylcellulose) (HPC)
[2] = dose: 50.0 mg/kg/injection, schedule: Q01DX005 (ip), vehicle: Klucel (hydroxypropylcellulose) (HPC)
[3] = dose: 100.0 mg/kg/injection, schedule: Q01DX005 (ip), vehicle: Klucel (hydroxypropylcellulose) (HPC)
[4] = dose: 200.0 mg/kg/injection, schedule: Q01DX005 (ip), vehicle: Klucel (hydroxypropylcellulose) (HPC)
[5] = dose: 50.0 mg/kg/injection, schedule: Q01DX009 (ip), vehicle: Klucel (hydroxypropylcellulose) (HPC)
[6] = dose: 12.5 mg/kg/injection, schedule: Q01DX009 (ip), vehicle: saline with Tween-80
[7] = dose: 100.0 mg/kg/injection, schedule: Q01DX001 (ip), vehicle: Klucel (hydroxypropylcellulose) (HPC)
[8] = dose: 200.0 mg/kg/injection, schedule: Q01DX001 (ip), vehicle: Klucel (hydroxypropylcellulose) (HPC)
[9] = dose: 60.0 mg/kg/injection, schedule: Q01DX005 (ip), vehicle: saline with Tween-80
[10] = dose: 120.0 mg/kg/injection, schedule: Q01DX005 (ip), vehicle: saline with Tween-80
[11] = dose: 240.0 mg/kg/injection, schedule: Q01DX005 (ip), vehicle: saline with Tween-80
[12] = dose: 50.0 mg/kg/injection, schedule: Q01DX005 (ip), vehicle: saline with Tween-80
[13] = dose: 100.0 mg/kg/injection, schedule: Q01DX005 (ip), vehicle: saline with Tween-80
[14] = dose: 200.0 mg/kg/injection, schedule: Q01DX005 (ip), vehicle: saline with Tween-80
[15] = dose: 100.0 mg/kg/injection, schedule: Q01DX009 (ip), vehicle: Klucel (hydroxypropylcellulose) (HPC)
[16] = dose: 200.0 mg/kg/injection, schedule: Q01DX009 (ip), vehicle: Klucel (hydroxypropylcellulose) (HPC)

For `C#C/C=C/CC1OC(C(Br)CC)CC(OC(C)=O)C(Cl)CC1Cl` (stereo not given), the T/C (dose: 3.75 mg/kg/injection, schedule: Q01DX005 (ip), vehicle: Klucel (hydroxypropylcellulose) (HPC)) was 97 % of control, the T/C (dose: 7.5 mg/kg/injection, schedule: Q01DX005 (ip), vehicle: Klucel (hydroxypropylcellulose) (HPC)) was 120 % of control and the T/C (dose: 15.0 mg/kg/injection, schedule: Q01DX005 (ip), vehicle: Klucel (hydroxypropylcellulose) (HPC)) was 100 % of control. For the same molecule, the T/C (dose: 30.0 mg/kg/injection, schedule: Q01DX005 (ip), vehicle: Klucel (hydroxypropylcellulose) (HPC)) was 98 % of control.
In the case of `O[C@@]12CO[C@@H](c3ccc4c(c3)OCO4)[C@@H]1CO[C@H]2c1ccc2c(c1)OCO2`, the T/C [1] is reported as 92 % of control, the T/C [2] is reported as 90 % of control and the T/C [3] is reported as 86 % of control. For the same molecule, the T/C [4] was 95 % of control.
`Clc1nc(Cl)nc(Nc2ccccc2Cl)n1` was tested, and the T/C (dose: 6.25 mg/kg/injection, schedule: Q01DX009 (ip), vehicle: Klucel (hydroxypropylcellulose) (HPC)) was 96 % of control, the T/C (dose: 12.5 mg/kg/injection, schedule: Q01DX009 (ip), vehicle: Klucel (hydroxypropylcellulose) (HPC)) was 99 % of control and the T/C (dose: 25.0 mg/kg/injection, schedule: Q01DX009 (ip), vehicle: Klucel (hydroxypropylcellulose) (HPC)) was 96 % of control. The T/C [5] was 99 % of control.
For `CCCCN(CCCC)CC(O)c1c(Br)c2ccccc2c2ccccc12` (stereo not given), the T/C [6] was 107 % of control, the T/C (dose: 25.0 mg/kg/injection, schedule: Q01DX009 (ip), vehicle: saline with Tween-80) was 109 % of control and the T/C (dose: 50.0 mg/kg/injection, schedule: Q01DX009 (ip), vehicle: saline with Tween-80) was 124 % of control.
In the case of `Nc1cc2c(c[n+](CCCCCCC[n+]3cc4c5ccccc5c(N)cc4c4ccccc43)c3ccccc23)c2ccccc12`, the T/C (dose: 1.56 mg/kg/injection, schedule: Q04DX003 (ip), vehicle: other) is reported as 150 % of control and 153 % of control, the T/C (dose: 3.13 mg/kg/injection, schedule: Q04DX003 (ip), vehicle: other) is reported as 155 % of control and the T/C (dose: 6.25 mg/kg/injection, schedule: Q04DX003 (ip), vehicle: other) is reported as 150 % of control and 173 % of control. The T/C (dose: 12.5 mg/kg/injection, schedule: Q04DX003 (ip), vehicle: other) was 166 % of control and 180 % of control.
In the case of `N#CC(C#N)C(c1ccccc1)c1cccc2ccccc12` (stereo not given), the T/C [7] is reported as 101 % of control, the T/C [8] is reported as 109 % of control and the T/C (dose: 400.0 mg/kg/injection, schedule: Q01DX001 (ip), vehicle: Klucel (hydroxypropylcellulose) (HPC)) is reported as 104 % of control.
In the case of `Nc1nnc2nc(CC(=O)c3ccccc3[N+](=O)[O-])c(CC(=O)c3ccccc3[N+](=O)[O-])nn12`, the T/C [9] is reported as 100 % of control, the T/C [10] is reported as 101 % of control and the T/C [11] is reported as 100 % of control.
With `O/N=C(\CC(O)(C(F)(F)F)C(F)(F)F)c1cccs1` the T/C (dose: 100.0 mg/kg/injection, schedule: Q04DX003 (ip), vehicle: saline with Tween-80) was 100 % of control, the T/C (dose: 200.0 mg/kg/injection, schedule: Q04DX003 (ip), vehicle: saline with Tween-80) was 95 % of control and the T/C (dose: 400.0 mg/kg/injection, schedule: Q04DX003 (ip), vehicle: saline with Tween-80) was 108 % of control.
For `CCOc1cc2c(cc1C(C)c1ccccc1)OCO2` (stereo not given), the T/C [12] was 108 % of control, the T/C [13] was 101 % of control and the T/C [14] was 101 % of control.
For `O=C(O)C1(Cc2ccc(O)c(O)c2)NCCS1` (stereo not given), the T/C [7] was 104 % of control and the T/C [8] was 100 % of control.
In the case of `Nc1ccc(N)c2c1C(=O)c1c(N)ccc(N)c1C2=O`, the T/C [2] is reported as 102 % of control, the T/C [3] is reported as 100 % of control and the T/C [4] is reported as 101 % of control.
`Nc1[nH]c(=S)nc2nc3c4ccccc4c4ccccc4c3nc12` was tested, and the T/C [2] was 91 % of control, the T/C [3] was 90 % of control and the T/C [4] was 91 % of control.
With `COC(=O)CCC1=C(C)c2cc3cc(C)c(cc4cc(C)c(cc5nc(cc1n2)C(CCC(=O)OC)=C5C)[nH]4)[nH]3` the T/C (dose: 0.75 mg/kg/injection, schedule: Q01DX005 (ip), vehicle: saline with Tween-80) was 96 % of control, the T/C (dose: 1.5 mg/kg/injection, schedule: Q01DX005 (ip), vehicle: saline with Tween-80) was 98 % of control and the T/C (dose: 3.0 mg/kg/injection, schedule: Q01DX005 (ip), vehicle: saline with Tween-80) was 91 % of control. The T/C (dose: 3.12 mg/kg/injection, schedule: Q01DX005 (ip), vehicle: saline with Tween-80) was 90 % of control.
`Cc1ccc(S(=O)(=O)N(CCc2ccccc2)S(=O)(=O)c2ccc(C)cc2)cc1` was tested, and the T/C [5] was 94 % of control, the T/C [15] was 100 % of control and the T/C [16] was 109 % of control.
`O=C(O)CN(CCN(CC(=O)O)CC(=O)O)CC(=O)O` was tested, and the T/C (dose: 100.0 mg/kg/injection, schedule: Q04DX003 (ip), vehicle: saline) was 100 % of control.
`CCOC(=O)C(Cc1ccccc1)NO` (stereo not given) was tested, and the T/C (dose: 6.25 mg/kg/injection, schedule: Q01DX009 (ip), vehicle: saline with Tween-80) was 98 % of control and the T/C [6] was 100 % of control.
With `Cn1[nH]c2[nH]c(=S)sc(=S)c2c1=O` the T/C [1] was 109 % of control, the T/C [2] was 109 % of control and the T/C [3] was 98 % of control. For the same molecule, the T/C [4] was 104 % of control.
In the case of `CCOC(=O)Nc1cc2c(c(N)n1)N=C(c1ccc(Cl)c(Cl)c1)CN2`, the T/C (dose: 5.0 mg/kg/injection, schedule: Q01DX005 (ip), vehicle: saline with Tween-80) is reported as 121 % of control and the T/C (dose: 10.0 mg/kg/injection, schedule: Q01DX005 (ip), vehicle: saline with Tween-80) is reported as 158 % of control.
For `O=NNc1nc2ccc([N+](=O)[O-])cc2s1`, the T/C (dose: 3.12 mg/kg/injection, schedule: Q01DX009 (ip), vehicle: water) was 95 % of control, the T/C (dose: 6.25 mg/kg/injection, schedule: Q01DX009 (ip), vehicle: water) was 95 % of control and the T/C (dose: 12.5 mg/kg/injection, schedule: Q01DX009 (ip), vehicle: water) was 103 % of control and 97 % of control. For the same molecule, the T/C (dose: 25.0 mg/kg/injection, schedule: Q01DX009 (ip), vehicle: water) was 106 % of control and 109 % of control and 112 % of control and the T/C (dose: 50.0 mg/kg/injection, schedule: Q01DX009 (ip), vehicle: water) was 112 % of control and 118 % of control.
For `CCCCCCC(=O)/C=C/c1ccc(OCOC)cc1`, the T/C (dose: 50.0 mg/kg/injection, schedule: Q01DX009 (ip), vehicle: saline + alcohol) was 97 % of control, the T/C (dose: 100.0 mg/kg/injection, schedule: Q01DX009 (ip), vehicle: saline + alcohol) was 121 % of control and the T/C (dose: 200.0 mg/kg/injection, schedule: Q01DX009 (ip), vehicle: saline + alcohol) was 100 % of control.
With `COc1ccc(CSc2nn(CCC#N)c(=O)[nH]c2=O)cc1` the T/C [12] was 95 % of control, the T/C [13] was 97 % of control and the T/C [14] was 94 % of control.
`C=CC(c1ccccc1)c1cc2c(cc1OCC)OCO2` (stereo not given) was tested, and the T/C [2] was 105 % of control, the T/C [3] was 100 % of control and the T/C [4] was 94 % of control.
For `CNC(=O)c1ccccc1C1(O)c2ccccc2CCc2ccccc21`, the T/C [12] was 94 % of control, the T/C [13] was 93 % of control and the T/C [14] was 90 % of control.
`CSc1nc(N)c(C(=O)N2CCCCC2)s1` was tested, and the T/C [5] was 100 % of control, the T/C [15] was 100 % of control and the T/C [16] was 89 % of control.
With `COC1(NS(=O)(=O)c2ccc(C)cc2)CC1` the T/C (dose: 60.0 mg/kg/injection, schedule: Q01DX005 (ip), vehicle: Klucel (hydroxypropylcellulose) (HPC)) was 103 % of control and the T/C (dose: 120.0 mg/kg/injection, schedule: Q01DX005 (ip), vehicle: Klucel (hydroxypropylcellulose) (HPC)) was 91 % of control.
`C/C(=C1/c2ccccc2-c2n[nH]c(C)c21)S(=O)(=O)O` was tested, and the T/C (dose: 100.0 mg/kg/injection, schedule: Q01DX009 (ip), vehicle: saline with Tween-80) was 109 % of control, the T/C (dose: 200.0 mg/kg/injection, schedule: Q01DX009 (ip), vehicle: saline with Tween-80) was 109 % of control and the T/C (dose: 400.0 mg/kg/injection, schedule: Q01DX009 (ip), vehicle: saline with Tween-80) was 100 % of control.
For `OCC(O)C(O)C(O)c1nn(-c2ccccc2)c2nc3ccccc3nc12` (stereo not given), the T/C (dose: 25.0 mg/kg/injection, schedule: Q01DX005 (ip), vehicle: saline with Tween-80) was 94 % of control, the T/C [12] was 100 % of control and 90 % of control and the T/C [13] was 90 % of control. For the same molecule, the T/C [14] was 90 % of control.
With `CC(C)(C)c1cc(-c2c3nc(c(-c4cc(C(C)(C)C)c(O)c(C(C)(C)C)c4)c4ccc([nH]4)c(-c4cc(C(C)(C)C)c(O)c(C(C)(C)C)c4)c4nc(c(-c5cc(C(C)(C)C)c(O)c(C(C)(C)C)c5)c5ccc2[nH]5)C=C4)C=C3)cc(C(C)(C)C)c1O` the T/C [9] was 90 % of control, the T/C [10] was 88 % of control and the T/C [11] was 88 % of control.
With `CC1(C)CC(NCc2ccccc2)=CC(=S)N1` the T/C [2] was 100 % of control, the T/C [3] was 103 % of control and the T/C [4] was 93 % of control.
